Experimental data published in PMC6145916, “Interaction of mitochondrial fission factor with dynamin related protein 1 governs physiological mitochondrial function in vivo” (Scientific Reports, 2018).
Where no end group is shown, it is not given here.

Tested on: wild-type mice
Experiment: ATP content in brain tissue
Type: in vivo, mouse
Settings: 3 mg/Kg/day, subcutaneous osmotic pump, 8 weeks, WT mice; n = 4 mice, 2 replicates
Description: (a) Quantification of mitochondrial Drp1 content relative to ALDH2 (a mitochondrial matrix enzyme) in the mitochondrial fraction isolated from total brain lysate of wild-type mice (Western blot shown in Fig. S3B) (n = 4 mice). (b) ATP content in brain tissue of wild-type mice (n = 4 mice, 2 replicates). (c) Representative transmission electron microscopy images of the striatum from wild-type mice. […] The first principal component represents 42% of the variation. (f) Local linear embedding dimensionality reduction and visualization of all behaviors collected weekly from TAT- (black) or P259- (purple) treated WT and TAT- (white) treated R6/2 mice over the course of 8 weeks. […] All behavior and survival tests were conducted by an experienced observer who was blinded to the treatment groups. Data are mean ± s.e.
Five-week old R6/2 HD mice and their wild-type littermates (a total of 60 mice) were implanted subcutaneously with a 28-d Alzet osmotic pump with either P259-TAT or TAT control peptide (15 mice per group) to be delivered continuously at a rate of 3 mg/Kg/day, as previously described. All mice were implanted twice for a total of an 8-week treatment. 20 of the WT mice were implanted 3 times for a total of a 12-week treatment at 3 mg/Kg/day. […]
To quantify mitochondrial motility, the images at time 0 and 150 seconds w ere overlaid. […]

“YGRKKRRQRRRGSGIIQLPEIVVV-NH2 (C-terminus assumed) [P259]” was tested, and the “decrease in ATP levels in the brain” value was 30%.
